{"source": "patent US20230093162A1", "about": "“FATTY LIVER AND LIVER FIBROSIS EVALUATION SYSTEM BASED ON IMPEDANCE” (KOREA RESEARCH INSTITUTE OF CHEMICAL TECHNOLOGY, priority 2018, published 2023)", "test_system": "liver microtissue (MT) of HepaRG hepatocyte strain", "experiment": "Evaluation of drug induced fatty liver toxicity by impedance of liver microtissue", "type": "cell-based", "details": "0.5 M oleic acid", "description": "1. Completely differentiated HepaRG hepatocyte strain was obtained at the density of 4,000,000 cells/100 uL.\n2. A sample was prepared according to the manual of C253000 provided by Microfit Co. 10 μL of cell suspension #1 was distributed in each well to allow 400,000 HepaRG cells to be placed per well. This step can be performed using a 3D cell preparation method such as a micropattern plate method or a hanging drop method.\n3. The cells were cultured for 3 days and the cell culture medium was replaced every day.\n4. On day 4, the microtissue (MT) was distributed in a 96-well plate (Ultra-Low attachment surface multiple well plate, Corning) using a 100 uL blue tip.\n5a. The liver microtissue (MT) distributed in the Ultra-Low attachment surface multiple well plate was treated with 0.5 M oleic acid, a fatty liver toxicity inducing drug.\n6a. A 200 μL pipette was inserted in the end of the first glass tube of Example 1 and the liver microtissue (MT) and the culture medium were sucked through the other end to fill the glass tube with preventing air bubble formation.\n7a. The glass tube was inserted between the two Y tubes (third tube and fourth tube) of Example 1 and Example 4 with preventing air bubble formation.\n8a. Air bubbles in the liquid were removed and let the wire of each Y tube shared the same liquid.\n9a. The working electrode/sensing electrode of the potentiostat or impedance analyzer was connected to the gold (Au) wire protruding out of the Y tube (iii tube) and the reference/counter electrode was connected to the platinum (Pt) wire protruding out of the other Y tube (III tube).\n10a. The liver microtissue (MT) was placed at the end of the plastic tip by using a 1 mL syringe.\n11a. The pressure was set at −5 mPa by using the syringe pump and the liver microtissue (MT) was fixed at the plastic tip by the pressure difference.\n12a. Alternating current impedance was measured at a fixed voltage of 50 mV from 10^6 Hz to 10^−2 Hz to measure the impedance of the liver microtissue (MT) and the PBS buffer.\n13a. The pressure of the syringe pump was set at 10 mPa to allow the liver microtissue (MT) to be removed from the plastic tip.\n14a. Impedance was measured at a fixed voltage of 50 mV from 10^6 Hz to 10^−2 Hz to measure the impedance of the PBS buffer (background).\n15a. The interior resistance, the exterior resistance and the capacitance of 12a and the resistance and the capacitance of 14a were measured by using a Fitting program (e.g. Zview).\n16a. The interior resistance, the exterior resistance and the capacitance of the liver microtissue (MT) were compared with those of the normal control group. At that time, the normal control group indicates the liver microtissue (MT) not treated with oleic acid which was regarded as a fatty liver toxicity inducing drug.\n17a. […]", "data": [{"smiles": "CCCCCCCC/C=C\\CCCCCCCC(=O)O", "note": "[oleic acid]", "values": [{"measurement": "fat formation in the liver microtissue (MT)", "result": "fat was formed"}, {"measurement": "impedance of the liver microtissue (MT)", "setting": "compared with the normal control group, FIG. 2a, 2b, 3", "result": "increased"}, {"measurement": "resistance of the liver microtissue (MT)", "setting": "compared with the normal control group, according to the pressure changes, FIG. 3", "result": "increased"}, {"measurement": "internal resistance of the liver microtissue (MT)", "setting": "fitted with Zview, compared with normal control", "result": "increased"}]}]}
